Tested on: VEGF expression in CT-26 colon adenocarcinoma cells
Assay: VEGF silencing in vitro, mouse VEGF ELISA of cell supernatants
Assay type: cell-based
Conditions: bPEI carrier; N/P ratio of 10; CT-26 cells; 0.7 μg siRNA/well
Protocol: To evaluate the biological significance of these systems, the inhibitory activity of siRNA against the expression of VEGF in CT-26 colon adenocarcinoma cells was investigated.
CT-26 cells were seeded in 24-well tissue culture plates at 8×10^4 cells per well in 10% FBS containing RPMI 1640 medium. Cells achieved 80% confluency within 24 h, after which they were transfected with cationic substance/siRNA complexes prepared at N/P ratios ranging from 5 to 40. The total amount of siRNA loaded was maintained constant at 0.7 μg/well. The transfection was carried out in the absence of serum. The cells were allowed to incubate at 37° C. in the presence of complexes for 4 h in a CO2 incubator, followed by replacement of 1 ml of RPMI 1640 containing 10% FBS. Thereafter, the cells were incubated at 37° C. for an additional 24 h. […]
The amount of mouse VEGF produced in medium was determined using a mouse VEGF ELISA kit (R&D Systems Inc., Minneapolis, Minn.) according to the recommendation of the manufacturer. […] The enzymatic reaction was stopped by adding 100 μl of stop solution to the wells, and absorbance was determined by spectrophotometry at 450 nm. The VEGF concentration in the cell supernatant samples was calculated based on the standard curve.
The inhibitory effect was evaluated from the relative silencing of the VEGF assayed by ELISA.

Question: Which “silencing of VEGF expression (ELISA)” value does the source give for “scVEGF: scrambled VEGF siRNA, SEQ ID NO:3 and SEQ ID NO:4; in b74 tested as complex with bPEI (chain 1 GAUAGCAAUGACGAAUGCGUATT; chain 2 UACGCAUUCGUCAUUGCUAUCTT; chemistry not given here)” here?
Answer: no effect

From patent publication US8058256B2, “Polymeric carrier for delivery of small interfering RNA” (University of Utah Research Foundation, priority 2006, dated 2011)
